Assay results reported in patent US11226337B2, “Chemoproteomic profiling of protein electrophilic and oxidative post-translational modifications” (Zenagem, LLC, priority 2017, dated 2022).

Assays:
[1] = biological target: T1, SCPEP1 Retinoidinducible serine (Q9HB40) (Homo sapiens, UniProt Q9HB40); test: SILAC RP-ABPP; format: cell-based; conditions: SILAC H/L
T1 construct: In Situ Labelling of Cells with Hydrazine Probes for MS Experiments; endogenous in cells; host or cells: HEK293T and MDA-MB-231
T1 sequence (Q9HB40 27-452): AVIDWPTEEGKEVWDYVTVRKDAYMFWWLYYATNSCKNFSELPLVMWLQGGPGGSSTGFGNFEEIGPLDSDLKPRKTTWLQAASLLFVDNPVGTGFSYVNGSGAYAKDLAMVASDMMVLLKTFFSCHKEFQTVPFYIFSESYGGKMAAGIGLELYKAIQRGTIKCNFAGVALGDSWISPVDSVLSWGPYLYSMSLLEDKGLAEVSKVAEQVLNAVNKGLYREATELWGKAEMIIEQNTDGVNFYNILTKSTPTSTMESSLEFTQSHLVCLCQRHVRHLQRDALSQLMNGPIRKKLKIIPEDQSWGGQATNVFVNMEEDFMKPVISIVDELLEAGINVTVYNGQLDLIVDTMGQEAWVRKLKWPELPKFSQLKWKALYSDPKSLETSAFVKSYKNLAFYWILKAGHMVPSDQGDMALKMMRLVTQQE

[2] = biological target: T2, PLOD3 Procollagenlysine, 2oxoglutarate (O60568) (Homo sapiens, UniProt O60568); test: SILAC RP-ABPP; format: cell-based; conditions: SILAC H/L
T2 construct: In Situ Labelling of Cells with Hydrazine Probes for MS Experiments; endogenous in cells; host or cells: HEK293T and MDA-MB-231
T2 sequence (O60568 25-738): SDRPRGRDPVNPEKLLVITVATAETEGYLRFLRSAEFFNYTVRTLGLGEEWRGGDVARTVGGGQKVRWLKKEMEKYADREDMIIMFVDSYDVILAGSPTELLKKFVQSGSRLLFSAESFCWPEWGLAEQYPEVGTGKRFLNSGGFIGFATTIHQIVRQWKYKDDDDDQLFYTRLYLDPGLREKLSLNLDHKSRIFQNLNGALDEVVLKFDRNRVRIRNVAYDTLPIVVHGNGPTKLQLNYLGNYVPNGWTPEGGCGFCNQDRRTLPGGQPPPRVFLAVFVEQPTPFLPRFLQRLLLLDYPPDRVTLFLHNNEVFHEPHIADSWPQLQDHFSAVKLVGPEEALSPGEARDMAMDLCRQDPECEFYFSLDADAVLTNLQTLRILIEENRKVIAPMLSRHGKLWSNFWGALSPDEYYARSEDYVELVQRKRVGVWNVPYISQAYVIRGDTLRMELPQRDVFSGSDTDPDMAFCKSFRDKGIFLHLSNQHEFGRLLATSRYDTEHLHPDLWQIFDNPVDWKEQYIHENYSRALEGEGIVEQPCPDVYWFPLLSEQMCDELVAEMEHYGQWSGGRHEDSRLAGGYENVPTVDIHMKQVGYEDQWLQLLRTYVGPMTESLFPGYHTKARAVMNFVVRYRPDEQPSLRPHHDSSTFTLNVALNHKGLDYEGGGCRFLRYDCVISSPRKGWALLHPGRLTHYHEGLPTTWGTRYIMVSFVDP

| enrichment ratioavg ([1]; probe 2 1 mM 0.5 h vs probe 4, MDA-MB-231) | competition ratioavg ([1]; probe 2 vs probe 2+10x probe 4, MDA-MB-231) | enrichment ratioavg ([2]; probe 2 1 mM 0.5 h vs probe 4, HEK293T) | competition ratioavg ([2]; probe 2 vs probe 2+10x probe 4, HEK293T) | Compound | enrichment ratioavg ([1]; probe 1 3 mM 0.5 h vs probe 3, HEK293T) | competition ratioavg ([1]; probe 1 vs probe 1+10x probe 3, HEK293T) | enrichment ratioavg ([2]; probe 1 3 mM 0.5 h vs probe 3, MDA-MB-231) | competition ratioavg ([2]; probe 1 vs probe 1+10x probe 3, MDA-MB-231) |
| --- | --- | --- | --- | --- | --- | --- | --- | --- |
| – | – | – | – | C#CCNN.Cl [probe 1, prop-2-yn-1-ylhydrazine hydrochloride] | 5 | 2 | 14 | 2 |
| 19 | 4 | 20 | 6 | C#CCCNC(=O)c1ccc(NN)cc1.Cl [probe 2, N-(but-3-yn-1-yl)-4-hydrazinylbenzamide hydrochloride] | – | – | – | – |
